Data on 6 molecules can be found in patent publication US20060292683A1, “Cross-beta structures on microbial organisms” (Crossbeta Biosciences B.V., priority 2005, published 2006).

The subject of assay [1] is S. aureus Newman. The experiment in a line: ROS production by bEnd.3 endothelial cells upon exposure to S. aureus Newman. The settings on record: 1.13×10^8 S. aureus cells/ml with either 1.25 mg/ml IgIV, 0.8 mg/ml finger domains, 220 μM Congo red, 220 μM ThT or 1.1 μM tPA. In kind it is cell-based, Staphylococcus aureus. The source says: (§1) Glycated proteins comprising a cross-beta structure and amyloid-β induce inflammatory responses and are believed to contribute to the pathogenesis of certain protein misfolding diseases (diabetes type II, Alzheimer's disease). In general, misfolded proteins induce cellular dysfunction with enhanced expression or activation of inflammatory signals. The effect of misfolded proteins on endothelial cell (dys)function is, for example, measured by determining the levels of reactive oxygen species or nitric oxide or tissue factor in response to misfolded proteins. Human umbilical vein endothelial cells (HUVEC) that are isolated and cultured, according to standard protocols, are used, or other endothelial cells such as the murine microvascular bEnd.3 endothelial cell line. The levels of reactive oxygen species (ROS), like, for example, nitric oxide, are monitored using fluorescent probes, such as CM-H2DCF-DA. Alternatively, cell viability is monitored by standard MTT-assay. The levels of tissue factor expression is determined using a chromogenic assay with purified factor VII, purified factor X and chromogenic substrate S-2765 (Chromogenix), using cell lysates. For example, bEnd.3 cells are seeded at 120,000 cells/well of a 96-well culture dish, and cultured overnight. […]
(§2) To assess production of reactive oxygen species by cultured mouse microvascular bEnd.3 endothelial cells (ECs), cells are seeded at 128,000 cells/well of a 96-well plate (Costar, 3904). […] For the analysis of ROS production, 10 μl of tester samples and controls are added to separate wells, and fluorescence is measured every two minutes for 70 minutes upon excitation at 488 nm with the emission wavelength set to 538 nm. […]

In assay [2] the test system is S. aureus Newman. The experiment in a line: Binding of dyes to S. aureus Newman by visual inspection. Details: species or system Staphylococcus aureus. The note with it: S. aureus Newman after incubation with Thioflavin T, Congo red, tPA and IgIV. The method, then:
(§3) Staphylococcus aureus Newman, which was a kind gift of Dr. Jos van Strijp and Dr Kok van Kessel (Dept. of Microbiology, University Medical Center Utrecht, the Netherlands) was plated on a blood plate from a stock stored at −70° C., and incubated overnight at 37° C. The plate was stored at 4° C. Escherichia coli strain TOP10 (Invitrogen, 44-0301) was plated on agar with Luria broth medium from a −80° C. glycerol stock, and incubated overnight at 37° C. The plate was stored at 4° C. Overnight cultures of 5 ml in Luria broth medium were grown at 37° C. with vigorous shaking and aeration, by streaking a single colony with the tip of a pipet and transferring the tip to the medium in a 15-ml tube. The cell density in overnight cultures was determined by measuring the absorbance at 600 nm (A600=1 is equivalent with 0.8×10^9 cells/ml). Cells were pelleted by centrifugation for one minute at 16,000*g or for ten minutes at 3,000*g. Medium was discarded. One half of the cells were resuspended in PBS in 1/10 of the original medium volume (10× concentration of the cells) by pipetting and swirling. These cells were used as reference cells. […]
(§4) Binding of cross-beta structure binding compounds to E. coli TOP10 and S. aureus Newman after incubation of the bacteria with Thioflavin T, Congo red, tPA and IgIV, as described in the Materials & Methods section, was determined in two ways. […]

Assay [3] relates to Escherichia coli TOP10. The experiment in a line: ROS production by bEnd.3 endothelial cells upon exposure to E. coli TOP10. In kind it is cell-based. The note with it: 8.1×10^7 E. coli cells/ml with either 1.25 mg/ml IgIV, 0.8 mg/ml finger domains, 220 μM Congo red, 220 μM ThT or 1.1 μM tPA.
From the text: as §1, §2

Assay [4] has as its system E. coli TOP10. The experiment in a line: Binding of dyes to E. coli TOP10 by visual inspection. Set-up: species or system Escherichia coli. The settings on record: E. coli TOP10 after incubation with Thioflavin T, Congo red, tPA and IgIV. The protocol: as §3, §4
In assay [5] the test system is protein and peptide aggregates with cross-β structure conformation. The experiment in a line: ELISA binding to immobilized peptides with cross-β structure conformation. The settings on record: immobilized Aβ, FP13, TTR11, LAM12 or IAPP; GST-tagged F domains. The source says:
FIG. 2: Binding of tPA, factor XII, fibronectin and finger domains thereof to compounds with cross-β structure. Panels A-C: Full-length purified tPA (Panel A), factor XII (Panel B) and fibronectin (Panel C) bind to immobilized peptides with cross-β structure conformation, in an ELISA.
Previously, we established that tissue-type plasminogen activator specifically interacts with protein and peptide aggregates that comprise a cross-β structure conformation, a structural element found in amyloid-like polypeptide assemblies (Bouma et al., 2003; Kranenburg et al., 2002). Now, we expanded this analysis to other proteins that resemble tPA domain architecture and we separated domains of tPA. Binding of full-length tPA, factor XII and fibronectin, as well as of fibronectin type I (finger, F) domains of tPA and factor XII and F4-5 of fibronectin, to protein and peptide aggregates with cross-β structure conformation was analyzed in an ELISA. […] Binding of tPA and factor XII was established for immobilized amyloid-β(1-40) (Aβ) with amyloid-like properties, fibrin peptide FP13, that encompasses the tPA activating sequence 148KRLEVDIDIKIR160 (SEQ ID NO:——————) of the fibrin α-chain, TTR11, which is an 11 amino-acid residues peptide from transthyretin that forms cross-β structure, and LAM12, which is a 12 amino-acid residues peptide from laminin that forms cross-β structure (FIG. 2, Panels A and B). Negative controls were freshly dissolved, monomerized Aβ and non-amyloid murine islet amyloid polypeptide (mIAPP). For fibronectin, human amyloid IAPP is depicted instead of LAM12 (FIG. 2, Panel C).

Turning to `Nc1c(/N=N/c2ccc(-c3ccc(/N=N/c4cc(S(=O)(=O)O)c5ccccc5c4N)cc3)cc2)cc(S(=O)(=O)O)c2ccccc12` [Congo red], the “effect on ROS production by bEnd.3 ECs, co-incubation” value (from here on “effect on ROS production”) in assay [1] is “strongly inhibits ROS expression”; in assay [3] it was “reverse ROS production”. Also, in assay [2], the “binding of dye to bacterium cells, visual inspection” value is reported as “intense red”.
With `Cc1ccc2c(c1)sc(-c1ccc(N(C)C)cc1)[n+]2C.[Cl-]` [Thioflavin T], the “effect on ROS production” value in assay [1] is listed as “slightly decrease ROS production”; in assay [3] it was “to some extent”. Also, in assay [4], the “binding of dye to bacterium cells, visual inspection” value was “bound to the cells”.
As for “fibronectin F4-5: recombinant fibronectin type I domains 4-5 of fibronectin with carboxy terminal GST-tag”, the “binding to cross-β structure rich compounds in ELISA” value (shortened to “binding … in ELISA”) in assay [5] was “bind specifically”.
On the same count and under the same terms, as for “fibronectin: full-length purified fibronectin”, the entry is “bind specifically”.
In the case of “tPA: tissue-type plasminogen activator (Actilyse, Boehringer-Ingelheim)”, in assay [5], the “binding … in ELISA” value was “bind specifically”. Besides, the “effect on ROS production” value was “does not influence S. aureus induced ROS production” in assay [1] and “not able to reduce ROS production” in assay [3].

B1: factor XII: full-length purified factor XII (protein, UniProt P00748 1-615, looked up)
chain: MRALLLLGFLLVSLESTLSIPPWEAPKEHKYKAEEHTVVLTVTGEPCHFPFQYHRQLYHKCTHKGRPGPQPWCATTPNFDQDQRWGYCLEPKKVKDHCSKHSPCQKGGTCVNMPSGPHCLCPQHLTGNHCQKEKCFEPQLLRFFHKNEIWYRTEQAAVARCQCKGPDAHCQRLASQACRTNPCLHGGRCLEVEGHRLCHCPVGYTGAFCDVDTKASCYDGRGLSYRGLARTTLSGAPCQPWASEATYRNVTAEQARNWGLGGHAFCRNPDNDIRPWCFVLNRDRLSWEYCDLAQCQTPTQAAPPTPVSPRLHVPLMPAQPAPPKPQPTTRTPPQSQTPGALPAKREQPPSLTRNGPLSCGQRLRKSLSSMTRVVGGLVALRGAHPYIAALYWGHSFCAGSLIAPCWVLTAAHCLQDRPAPEDLTVVLGQERRNHSCEPCQTLAVRSYRLHEAFSPVSYQHDLALLRLQEDADGSCALLSPYVQPVCLPSGAARPSETTLCQVAGWGHQFEGAEEYASFLQEAQVPFLSLERCSAPDVHGSSILPGMLCAGFLEGGTDACQGDSGGPLVCEDQAAERRLTLQGIISWGSGCGDRNKPGVYTDVAYYLAWIREHTVS
modifications: full-length
On to B1, for which, in assay [5], the “binding … in ELISA” value is recorded as “bind specifically”.
